Measured values reported in patent US20200038420A1, “AMINOSTEROL COMPOSITIONS AND METHODS OF USING THE SAME FOR TREATING DEPRESSION” (Enterin, Inc., priority 2018, published 2020).
“Also recorded” adds a separate entry of the source. Where a name gives a salt, the structure may show the parent alone. Read-outs that look alike come from different tables or passages of the source.

Legend:
[1] = mice; into the duodenum through the biliary tract; cited from earlier work
[2] = system: IPANs (intrinsic primary afferent neuron); details: perfusion through the lumen of isolated bowel segment; increased frequency of propulsive peristaltic contractions; cited from earlier work
αS = αS (Homo sapiens, UniProt P37840); details: in vitro; cited from earlier work
C. elegans αS model = details: cited from earlier work; for Formation of αS aggregates: in vivo, C. elegans model of PD
[3] = cited from earlier work
[4] = system: patients with PD and constipation; test: CNS / neurological symptoms, Stage 2 (UPDRS, MMSE, PDHQ, BDI-II); format: in vivo, human
Excerpt: Exploratory end-points, in addition to constipation, included for example, (i) depression assessed using the Beck Depression Inventory (BDI-II) (Steer et al. 2000) and Unified Parkinson's Disease Rating Scale (UPDRS); (ii) cognition assessed using the Mini Mental State Examination (MMSE) (Palsteia et al. 2018), Unified Parkinson's Disease Rating Scale (UPDRS), and Trail Making Test (TMT); (iii) sleep and REM-behavior disorder (RBD) using a daily sleep diary, I-Button Temperature Assessment, a REM sleep behavior disorder (RBD) questionnaire (RBDQ) (Stiasny-Kolster et al. 2007), and the UPDRS; (iv) hallucinations assessed using the PD hallucinations questionnaire (PDHQ) (Papapetropoulos et al. 2008), the UPDRS, and direct questioning; (v) fatigue using the Parkinson's Disease Fatigue Scale (PFS-16) and the UPDRS; (vi) motor functions using the UPDRS; and (vii) non-motor functions using the UPDRS.
(§1) Assessments were made at baseline and at the end of the fixed dose and washout periods. Circadian system status was evaluated by continuously monitoring wrist skin temperature (Thermochron iButton DS1921H; Maxim, Dallas) following published procedures (Sarabia et al. 2008).
An exploratory analysis was done with respect to the sleep data, the body temperature data, mood, fatigue, hallucinations, cognition and other motor and non-motor symptoms of PD. […]

[5] = system: patients with PD and constipation; test: Adverse events, Phase 2 trial Stage 2 (daily oral dosing); format: in vivo, human; details: Stage 2 (34 dosed), daily oral doses 75-250 mg
Protocol: (§2) In Stage 2, 34 patients were evaluated.

[6] = system: patients with PD and constipation; test: Prokinetic response (CSBM within 24 hours of dosing), Stage 1; format: in vivo, human; details: Stage 1 (single dose)
Excerpt: (§3) Tolerability limits included diarrhea or vomiting.

mouse models of PD = details: cited from earlier work
[7] = system: patients with PD and constipation; test: Circadian rhythm of wrist skin temperature; format: in vivo, human; details: 12 patients
Protocol: (6) I-Button Temperature Assessment. The I-Button is a small, rugged self-sufficient system that measures temperature and records the results in a protected memory section. The Thermochron I-Button DS1921H (Maxim Integrated, Dallas, Tex.) was used for skin temperature measurement. I-Buttons were programmed to sample every 10 mins., and attached to a double-sided cotton sport wrist band using Velcro, with the sensor face of the I-Button placed over the inside of the wrist, on the radial artery of the dominant hand. Subjects removed and replaced the data logger when necessary (i.e., to have a bath or shower). […] From the collected data, the mesor, amplitude, acrophase (time of peak temperature), Rayleight test (an index of interdaily stability), mean waveforms are calculated.);
as §1
Circadian rhythm of skin temperature was evaluable in 12 patients (i.e., those who had recordings that extended from baseline through washout). Circadian system functionality was evaluated by continuously monitoring wrist skin temperature using a temperature sensor (Thermochron iButton DS1921H; Maxim, Dallas, Tex.) (Sarabia et al. 2008). […]

[8] = Oral bioavailability in PD patients (oral PK compared with prior IV PK); format: in vivo, human; details: this study
Protocol: PK data were collected on the 10 patients enrolled in Stage 1 and 10 patients enrolled in Stage 2 to determine the extent of systemic absorption. In Stage 1, PK data were obtained at each visit, pre-medication, at 1, 2, 4, 8 and 24 hours (Table 10). In Stage 2, PK was measured on days 1 and 6 of the randomization period pre-medication, at 1, 2, 4 and 8 hours (Table 11).

[9] = system: patients with PD and constipation; test: Bowel function / stool related indices, Stage 2; format: in vivo, human; details: Stage 2 (daily dosing), at 75 mg
Protocol: Following successful screening, all subjects underwent a 14-day run-in period where the degree of constipation was assessed through a validated daily log (Zinsmeister et al. 2013) establishing baseline CSBMs/week. Subjects with an average of <3 CSBMs/week proceeded to dosing.
as §2
The primary efficacy outcome variable was whether or not a subject was a “success” or “failure”. This is an endpoint based on subject diary entries for the “fixed dose” period prior to the endpoint assessment defined as average complete stool frequency increase by 1 or more over baseline, or 3 or more complete spontaneous stools/week. The subject was deemed a “success” if s/he met one or more of the criteria listed above, otherwise the subject was deemed a “failure”. The primary analysis was based on all subjects with a baseline assessment and an assessment at the end of the “fixed-dose” period and was a comparison of the proportion of successes with 0.10 (the null hypothesis corresponding to no treatment effect).

[10] = system: patients with PD and constipation; test: Adverse events, Phase 2 trial Stage 1 (single escalating oral doses); format: in vivo, human; details: Stage 1 (10 dosed), single escalating oral doses 25-200 mg
Excerpt: as §3

SMILES: CC(C)[C@@H](CC[C@@H](C)[C@H]1CC[C@H]2[C@@H]3[C@H](O)C[C@H]4C[C@@H](NCCCNCCCCN)CC[C@]4(C)[C@H]3CC[C@]12C)OS(=O)(=O)O (single isomer, unassigned) [squalamine (ENT-01), squalamine]
- Clearance and excretion following systemic administration [1]: cleared by the liver and excreted as the intact molecule
- Effect on enteric sensory neurons [2]: excitation of IPANs
- Formation of αS aggregates (αS): inhibits the formation of αS aggregates
- Muscle paralysis / motor dysfunction (C. elegans αS model; C. elegans αS model): reverses motor dysfunction; also recorded: complete reversal of muscle paralysis
- Formation of αS aggregates (C. elegans αS model; listed as ENT-01): inhibit the formation of aggregates of αS
- Formation of αS aggregates (C. elegans αS model; listed as squalamine): inhibits the formation of αS aggregates
- Gastrointestinal motility after intravenous administration ([3]; intravenous, prior studies): not associated with increased gastrointestinal motility
- Systemic blood levels, intravenous versus orally administered squalamine ([3]; prior studies): one thousand-fold greater
- Patients in whom hallucinations and delusions improved or disappeared during treatment ([4]; Stage 2, 5 patients with hallucinations and 1 with delusions at baseline): 5 of 6
- Improvement of UPDRS Part 1 score ([4]; baseline 11.6 to wash-out 9.5): ~20%
- Diarrhea, Mild [5]: 12(35)^ n, %
- Difficulty falling asleep, Mild [5]: 1(3)^ n, %
- Difficulty falling asleep, Moderate [5]: 0 n, %
- Eye infection, Mild [5]: 1(3)^ n, %
- Eye infection, Moderate [5]: 0 n, %
- Flatulence, Mild [5]: 1(3)^ n, %
- Flatulence, Moderate [5]: 0 n, %
- Headache, Moderate [5]: 0 n, %
- Increased urinary frequency, Moderate [5]: 0 n, %
- Nausea, Mild [5]: 18(52)^ n, %
- Skin lesions-rash, Moderate [5]: 0 n, %
- Urinary retention, Mild [5]: 1(3)^ n, %
- Urinary retention, Moderate [5]: 0 n, %
- Urinary tract infection, Mild [5]: 1(3)^ n, %
- Vomiting, Moderate [5]: 0 n, %
- Worsening acid reflux, Moderate [5]: 0 n, %
- Worsening hemorrhoid, Mild [5]: 1(3)^ n, %
- Worsening hemorrhoid, Moderate [5]: 0 n, %
- Blood in urine, Mild ([5]; unrelated to ENT-01): 0 n, %
- Blood in urine, Moderate ([5]; unrelated to ENT-01): 0 n, %
- Loss of appetite, Mild ([5]; unrelated to ENT-01): 0 n, %
- Loss of appetite, Moderate ([5]; unrelated to ENT-01): 0 n, %
- Cumulative prokinetic response rate ([6]; at 25 mg): 25%
- Cumulative prokinetic response rate ([6]; maximum, at 200 mg): 80%
- Gastro-intestinal motility (mouse models of PD; oral, mice with constipation due to overexpression of human αS): stimulates gastro-intestinal motility
- Gastrointestinal motility / dysmotility (mouse models of PD; several mouse models of PD): restores gastrointestinal motility; also recorded: reverse gastrointestinal dysmotility
- Circadian rhythm parameters (IS, RA, CFI, IV) ([7]; fixed dose versus baseline): improved all markers of healthy circadian function
- Circadian rhythm parameters (IS, CFI) ([7]; wash-out period): improvement persisted for several of these circadian parameters
- Systemic absorption following oral administration [8]: not significantly absorbed into the systemic circulation
- Systemic absorption following oral administration ([8]; listed as aminosterol): negligible
- Prokinetic response rate [9]: 26%
- Abdominal pain, Mild [10]: 2(20) n, %
- Abdominal pain, Moderate [10]: 3(30) n, %
- Diarrhea, Mild [10]: 1(10) n, %
- Diarrhea, Moderate [10]: 3(30) n, %
- Diarrhea, Severe [10]: 0 n, %
- Difficulty falling asleep, Mild [10]: 0 n, %
- Difficulty falling asleep, Moderate [10]: 0 n, %
- Dizziness, Mild [10]: 0 n, %
- Dizziness, Moderate [10]: 0 n, %
- Eye infection, Mild [10]: 0 n, %
- Eye infection, Moderate [10]: 0 n, %
- Flatulence, Mild [10]: 2(20) n, %
- Flatulence, Moderate [10]: 0 n, %
- Headache, Mild [10]: 1(10) n, %
- Headache, Moderate [10]: 0 n, %
- Increased urinary frequency, Mild [10]: 0 n, %
- Increased urinary frequency, Moderate [10]: 0 n, %
- Nausea, Mild [10]: 4(40) n, %
- Nausea, Moderate [10]: 0 n, %
- Skin lesions-rash, Mild [10]: 0 n, %
- Skin lesions-rash, Moderate [10]: 0 n, %
- Urinary retention, Mild [10]: 0 n, %
- Urinary retention, Moderate [10]: 0 n, %
- Urinary tract infection, Mild [10]: 0 n, %
- Urinary tract infection, Moderate [10]: 0 n, %
- Vomiting, Mild [10]: 1(10) n, %
- Vomiting, Moderate [10]: 0 n, %
- Worsening acid reflux, Mild [10]: 0 n, %
- Worsening acid reflux, Moderate [10]: 0 n, %
- Worsening hemorrhoid, Mild [10]: 0 n, %
- Worsening hemorrhoid, Moderate [10]: 0 n, %
- Blood in urine, Mild ([10]; unrelated to ENT-01): 1(10) n, %
- Blood in urine, Moderate ([10]; unrelated to ENT-01): 0 n, %
- Loss of appetite, Mild ([10]; unrelated to ENT-01): 1(10) n, %
- Loss of appetite, Moderate ([10]; unrelated to ENT-01): 0 n, %
- Lower GI bleed, Severe ([10]; unrelated to ENT-01): 0 n, %

SMILES: CC(C)[C@@H](CC[C@@H](C)[C@H]1CC[C@H]2[C@@H]3[C@H](O)C[C@H]4C[C@@H](NCCCNCCCCN)CC[C@]4(C)[C@H]3CC[C@]12C)OS(=O)(=O)O [Squalamine dilactate salt]
- Well tolerated dose, single and repeat intravenous administration ([3]; intravenous, alone or in combination with other agents, Phase 1 and Phase 2 trials): at least 300 mg/m^2
